Where two headings read alike, the source gives them in different places.
Experiments:
HIV-1 pNL4-3 V7A = test: Antiviral activity against pNL4-3/V7A strain in MT4 cells (p24 estimation); format: cell-based; conditions: Human immunodeficiency virus 1, MT4, 96 h, read-out: pNL4-3 V7A IC50
How it was run: (§1)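 MT4 cells infected with HIV-1 pNL4-3 WT or V7A (defined TCID50, 1.5 h, 37° C), plated at 3×10^4 cells/well with test compound, final DMSO ≤1%. After 4 days' culture, p24 in supernatant aliquots measured by kit.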

HIV-1 strain 92HT599 = test: Antiviral activity against HIV-1 strain 92HT599 in MT2 cells (p24 estimation); format: cell-based; conditions: HIV-1 92HT599, ~96 hours
How it was run: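 Percent inhibition versus vehicle controls came from p24 quantified in supernatant aliquots. These were taken after ~96 h incubation of compound (DMSO ≤1%) with MT2 cells infected at 10 TCID50/30,000 cells.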

HIV-1 pNL4-3 WT = test: Antiviral activity against pNL4-3/WT strain in MT4 cells (p24 estimation); format: cell-based; conditions: Human immunodeficiency virus 1, MT4, 96 h, read-out: pNL4-3 WT IC50
How it was run: as §1

[1] = Single dose oral pharmacokinetic study; format: in vivo; conditions: mouse; Mice oral PK @30 mg/kg; plasma
Procedure: Example 80: Evaluation of Compounds Single Dose Oral Pharmacokinetic Study
The test item was administered through oral route to animals (rat/mice) at 30 mg/kg dose in a suitable vehicle (10% Solutol+20% PEG) at 10 ml/kg dose volume. Blood samples (˜50 μL at each time point) were collected from retro-orbital plexus using K3 EDTA as anticoagulant in eppendorf tubes at defined time intervals 30 minutes, 1 hour, 2 hour, 4 hour, 8 hour, 24 hour & 48 hour under light ether anaesthesia. The samples were centrifuged at 3500×g to separate plasma and stored at −80° C. until analysis. Plasma 25 μl for Mice were processed as per described in sample preparation.
Standard solutions of the test compound 1 mg/mL solutions were prepared in DMSO and further dilutions were made in methanol. The calibration curve samples for LCMSMS analysis were prepared by spiking 25 μl of Mice plasma with 2.5 μl and of the appropriate working standard solution to obtain final concentrations 0.078, 0.156, 0.312, 0.625, 1.25, 2.5, 5, 10, 20 & 40 μg/ml. To the test compound plasma extraction was carried out using Acetonitrile precipitation. After reconstitution with solvent (50% Acetonitrile in Buffer) samples were analyzed by LCMSMS to get the concentrations to calculate PK Parameters.

[2] = Human immunodeficiency virus 1, 0% serum binding assay, read-out: IC50 0% serum
[3] = Human immunodeficiency virus 1, 40% serum binding assay, read-out: IC50 40% serum

Row | Structure (SMILES) | IC50 (HIV-1 pNL4-3 V7A) [µM] | IC50 (HIV-1 strain 92HT599; [2]) [µM] | IC50 (HIV-1 strain 92HT599; [3]) [µM] | IC50 (HIV-1 pNL4-3 WT) [µM] | AUC(0-t) [1] [µg·h/mL] | Cmax [1] [ng/mL]
1 | CC(C)C1=C2[C@H]3CC[C@@H]4[C@@]5(C)CC[C@H](OC(=O)[C@H]6C[C@@H](C(=O)O)C6(C)C)C(C)(C)[C@@H]5CC[C@@]4(C)[C@]3(C)CC[C@@]2(NC(=O)C(C)(C)NC(=O)c2ccc(N3CCS(=O)(=O)CC3)cc2)CC1=O [Example 57, (1R,3S)-3-((((3aR,5aR,5bR,7aR,9S,11aR,11bR,13aS)-3a-(2-(4-(1,1-dioxidothiomorpholino)benzamido)-2-methylpropanamido)-1-isopropyl-5a,5b,8,8,11a-pentamethyl-2-oxo-3,3a,4,5,5a,5b,6,7,7a,8,9,10,11,11a,11b,12,13,13a-octadecahydro-2H-cyclopenta[a]chrysen-9-yl)oxy)carbonyl)-2,2-dimethylcyclobutane-1-carboxylic acid] | 0.01 to 0.05 | < 0.003 | < 0.05 | 0.00501 to 0.01 | – | –
2 | CC(C)C1=C2[C@H]3CC[C@@H]4[C@@]5(C)CC[C@H](OC(=O)[C@H]6C[C@@H](C(=O)O)C6(C)C)C(C)(C)[C@@H]5CC[C@@]4(C)[C@]3(C)CC[C@@]2(NC(=O)C(C)(C)NC(=O)c2ccc(CN3CCS(=O)(=O)CC3)cc2)CC1=O [Example 58, (1R,3S)-3-((((3aR,5aR,5bR,7aR,9S,11aR,11bR,13aS)-3a-(2-(4-((1,1-dioxidothiomorpholino)methyl)benzamido)-2-methylpropanamido)-1-isopropyl-5a,5b, 8,8,11a-pentamethyl-2-oxo-3,3a,4,5,5a,5b,6,7,7a,8,9,10,11,11a,11b,12,13,13a-octalecahydro-2H-cyclopenta[a]chrysen-9-yl)oxy)carbonyl)-2,2-dimethylcyclobutane-1-carboxylic acid] | > 0.05 | < 0.003 | < 0.05 | 0.00501 to 0.01 | – | –
3 | Cc1ccc(C(=O)NC(C)(C)C(=O)N[C@@]23CC[C@]4(C)[C@H](CC[C@@H]5[C@@]6(C)CC[C@H](OC(=O)[C@H]7C[C@@H](C(=O)O)C7(C)C)C(C)(C)[C@@H]6CC[C@]54C)C2=C(C(C)C)C(=O)C3)cn1 [Example 61, (1R,3S)-3-((((3aR,5aR,5bR,7aR,9S,11aR,11bR,13aS)-1-isopropyl-5a,5b,8,8,11a-pentamethyl-3a-(2-methyl-2-(6-methylnicotinamido)propanamido)-2-oxo-3,3a,4,5,5a,5b,6,7,7a,8,9,10,11,11a,11b,12,13,13a-octadecahydro-2H-cyclopenta[a]chrysen-9-yl)oxy)carbonyl)-2,2-dimethylcyclobutane-1-carboxylic acid] | 0.01 to 0.05 | < 0.003 | < 0.05 | < 0.005 | – | –
4 | CC(C)C1=C2[C@H]3CC[C@@H]4[C@@]5(C)CC[C@H](OC(=O)[C@H]6C[C@@H](C(=O)O)C6(C)C)C(C)(C)[C@@H]5CC[C@@]4(C)[C@]3(C)CC[C@@]2(NC(=O)C(C)(C)NS(C)(=O)=O)CC1=O [Example 63, sodium (1R,3S)-3-((((3aR,5aR,5bR,7aR,9S,11aR,11bR,13aS)-1-isopropyl-5a,5b,8,8,11a-pentamethyl-3a-(2-methyl-2-(methylsulfonamido)propanamido)-2-oxo-3,3a,4,5,5a,5b,6,7,7a,8,9,10,11,11a,11b,12,13,13a-octadecahydro-2H-cyclopenta[a]chrysen-9-yl)oxy)carbonyl)-2,2-dimethylcyclobutane-1-carboxylate] | > 0.05 | < 0.003 | < 0.05 | > 0.01 | – | –
5 | CCOC(=O)NC(C)(C)C(=O)N[C@@]12CC[C@]3(C)[C@H](CC[C@@H]4[C@@]5(C)CC[C@H](OC(=O)[C@H]6C[C@@H](C(=O)O)C6(C)C)C(C)(C)[C@@H]5CC[C@]43C)C1=C(C(C)C)C(=O)C2 [Example 64] | > 0.05 | < 0.003 | < 0.05 | 0.00501 to 0.01 | – | –
6 | CC(C)C1=C2[C@H]3CC[C@@H]4[C@@]5(C)CC[C@H](OC(=O)[C@H]6C[C@@H](C(=O)O)C6(C)C)C(C)(C)[C@@H]5CC[C@@]4(C)[C@]3(C)CC[C@@]2(NC(=O)C(C)(C)NS(=O)(=O)c2ccc(Cl)cc2)CC1=O [Example 65, (1R,3S)-3-((((3aR,5aR,5bR,7aR,9S,11aR,11bR,13aS)-3a-(2-((4-chlorophenyl)sulfonamido)-2-methylpropanamido)-1-isopropyl-5a,5b,8,8,11a-pentamethyl-2-oxo-3,3a,4,5,5a,5b,6,7,7a,8,9,10,11,11a,11b,12,13,13a-octadecahydro-2H-cyclopenta[a]chrysen-9-yl)oxy)carbonyl)-2,2-dimethylcyclobutane-1-carboxylic acid] | > 0.05 | < 0.003 | < 0.05 | > 0.01 | 145 | 7380
7 | CC(C)C1=C2[C@H]3CC[C@@H]4[C@@]5(C)CC[C@H](OC(=O)[C@H]6C[C@@H](C(=O)O)C6(C)C)C(C)(C)[C@@H]5CC[C@@]4(C)[C@]3(C)CC[C@@]2(NC(=O)C(C)(C)NC(=O)c2ccc(Cl)cn2)CC1=O [Example 70, (1R,3S)-3-((((3aR,5aR,5bR,7aR,9S,11aR,11bR,13aS)-3a-(2-(5-chloropicolinamido)-2-methylpropanamido)-1-isopropyl-5a,5b,8,8,11a-pentamethyl-2-oxo-3,3a,4,5,5a,5b,6,7,7a,8,9,10,11,11a,11b,12,13,13a-octadecahydro-2H-cyclopenta[a]chrysen-9-yl)oxy)carbonyl)-2,2-dimethylcyclobutane-1-carboxylic acid] | < 0.01 | < 0.003 | < 0.05 | < 0.005 | – | –
8 | Cc1cccc(NC(=O)NC(C)(C)C(=O)N[C@@]23CC[C@]4(C)[C@H](CC[C@@H]5[C@@]6(C)CC[C@H](OC(=O)[C@H]7C[C@@H](C(=O)O)C7(C)C)C(C)(C)[C@@H]6CC[C@]54C)C2=C(C(C)C)C(=O)C3)n1 [Example 72, (1R,3S)-3-((((3aR,5aR,5bR,7aR,9S,11aR,11bR,13aS)-1-isopropyl-5a,5b,8,8,11a-pentamethyl-3a-(2-methyl-2-(3-(6-methylpyridin-2-yl)ureido)propanamido)-2-oxo-3,3a,4,5,5a,5b,6,7,7a,8,9,10,11,11a,11b,12,13,13a-octadecahydro-2H-cyclopenta[a]chrysen-9-yl)oxy)carbonyl)-2,2-dimethylcyclobutane-1-carboxylic acid] | > 0.05 | < 0.003 | < 0.05 | < 0.005 | – | –

— patent US11034718B2, “C-3 novel triterpenone with C-17 reverse amide derivatives as HIV inhibitors” (HETERO LABS LIMITED, priority 2015, dated 2021)
